From ChEMBL document CHEMBL5143550, “Thiol- and Disulfide-Containing Vancomycin Derivatives Against Bacterial Resistance and Biofilm Formation” (2021) come the findings set out here.

≈ marks a conversion by molar mass, not a printed value. Where only a bound is given, the exact number is not on record here.

Type in all cases: functional
For assay [1], the system named is Enterococcus faecalis. Briefly: Antibiofilm activity against VanB-resistant Enterococcus faecalis ATCC 51299 assessed as inhibition of biofilm formation by measuring decrease in RFU in BHIG medium incubated for 24 hrs by resazurin assay. (Resazurin is reduced to fluorescent resorufin, in cell work by metabolically active cells.)
Assay [2] has as its system Staphylococcus aureus. Put plainly: Antibacterial activity against vancomycin-intermediate Staphylococcus aureus ATCC NRS1 assessed as inhibition of bacterial growth by standard broth microdilution susceptibility method. On the technique in general: Dilution methods test growth across graded concentrations, often in twofold steps.
For assay [3], the system named is Enterococcus faecalis. Briefly: Antibacterial activity against VanB-resistant Enterococcus faecalis ATCC 51299 assessed as inhibition of bacterial growth in BHIG medium incubated for 24 hrs by resazurin assay.
The subject of assay [4] is Clostridioides difficile. Put plainly: Potency index, ratio of vancomycin MIC to test compound MIC for antibacterial activity against Clostridium difficile ATCC 43255 assessed as inhibition of bacterial growth by standard broth microdilution susceptibility method.
Assay [5] has as its system Enterococcus faecium. Put plainly: Antibacterial activity against VanA-resistant Enterococcus faecium MMX0485 assessed as inhibition of bacterial growth by standard broth microdilution susceptibility method.
Assay [6] relates to Enterococcus gallinarum. Briefly: Antibacterial activity against VanC-resistant Enterococcus gallinarum ATCC 700221 assessed as inhibition of bacterial growth by standard broth microdilution susceptibility method.
Assay [7] has as its system Enterococcus faecalis. Briefly: Antibacterial activity against VanB-resistant Enterococcus faecalis ATCC 51299 assessed as inhibition of colony formation in BHIG medium incubated for 24 hrs by resazurin assay.
For assay [8], the system named is Enterococcus faecalis. Briefly: Antibiofilm activity against VanB-resistant Enterococcus faecalis ATCC 51299 assessed as inhibition of biofilm formation in BHIG medium incubated for 24 hrs by resazurin assay.
Assay [9] deals with Clostridioides difficile. Put plainly: Antibacterial activity against Clostridium difficile ATCC 43255 assessed as inhibition of bacterial growth by standard broth microdilution susceptibility method.
Assay [10] concerns Enterococcus faecalis. Briefly: Antibacterial activity against VanB-resistant Enterococcus faecalis ATCC 51299 assessed as inhibition of bacterial growth by standard broth microdilution susceptibility method.
Assay [11] relates to Staphylococcus aureus. Put plainly: Antibacterial activity against heterogenous vancomycin-intermediate Staphylococcus aureus ATCC NRS24 assessed as inhibition of bacterial growth by standard broth microdilution susceptibility method.
In assay [12] the test system is Moraxella catarrhalis. Briefly: Antibacterial activity against Moraxella catarrhalis ATCC 8193 assessed as inhibition of bacterial growth by standard broth microdilution susceptibility method.
In assay [13] the test system is Staphylococcus aureus. Briefly: Antibacterial activity against Staphylococcus aureus ATCC 25923 assessed as inhibition of bacterial growth by standard broth microdilution susceptibility method.
In assay [14] the test system is Streptococcus pneumoniae. Briefly: Antibacterial activity against […] assessed as inhibition of bacterial growth by standard broth microdilution susceptibility method.
The subject of assay [15] is Streptococcus pneumoniae. Briefly: Potency index, ratio of vancomycin MIC to test compound MIC for antibacterial activity against […] assessed as inhibition of bacterial growth by standard broth microdilution susceptibility method.
The test system of assay [16] is Staphylococcus aureus. Put plainly: Antibacterial activity against methicillin-resistant Staphylococcus aureus ATCC 43300 assessed as inhibition of bacterial growth by standard broth microdilution susceptibility method.
Assay [17] relates to Staphylococcus aureus. Put plainly: Potency index, ratio of vancomycin MIC to test compound MIC for antibacterial activity against heterogenous vancomycin-intermediate Staphylococcus aureus ATCC NRS24 assessed as inhibition of bacterial growth by standard broth microdilution susceptibility method.
Assay [18] has as its system Staphylococcus aureus. Put plainly: Potency index, ratio of vancomycin MIC to test compound MIC for antibacterial activity against vancomycin-intermediate Staphylococcus aureus ATCC NRS1 assessed as inhibition of bacterial growth by standard broth microdilution susceptibility method.
Assay [19] deals with Enterococcus faecium. Briefly: Potency index, ratio of vancomycin MIC to test compound MIC for antibacterial activity against VanA-resistant Enterococcus faecium MMX0485 assessed as inhibition of bacterial growth by standard broth microdilution susceptibility method.
For assay [20], the system named is Enterococcus faecalis. Briefly: Potency index, ratio of vancomycin MIC to test compound MIC for antibacterial activity against VanB-resistant Enterococcus faecalis ATCC 51299 assessed as inhibition of bacterial growth by standard broth microdilution susceptibility method.
For assay [21], the system named is Enterococcus faecalis. Briefly: Antibiofilm activity against VanB-resistant Enterococcus faecalis ATCC 51299 assessed as inhibition of biofilm formation in BHIG medium incubated for 24 hrs by resazurin assay relative to vancomycin.
Assay [22] deals with Enterococcus gallinarum. Put plainly: Potency index, ratio of vancomycin MIC to test compound MIC for antibacterial activity against VanC-resistant Enterococcus gallinarum ATCC 700221 assessed as inhibition of bacterial growth by standard broth microdilution susceptibility method.

Broadly, the MIC is the least concentration at which growth counts as inhibited. Consider `CN[C@H](CC(C)C)C(=O)N[C@H]1C(=O)N[C@@H](CC(N)=O)C(=O)N[C@H]2C(=O)N[C@H]3C(=O)N[C@H](C(=O)N[C@H](C(=O)NCCCCCS)c4cc(O)cc(O)c4-c4cc3ccc4O)[C@H](O)c3ccc(c(Cl)c3)Oc3cc2cc(c3O[C@@H]2O[C@H](CO)[C@@H](O)[C@H](O)[C@H]2O[C@H]2C[C@](C)(N)[C@H](O)[C@H](C)O2)Oc2ccc(cc2Cl)[C@H]1O`, for which the “inhibition (INH)” value in assay [1] worked out at 99%; in [3], 100%. For the same compound, the minimal inhibitory concentration (MIC) was 2 µg/mL (≈ 1.29 µM) in [2]; 1 µg/mL (≈ 0.645 µM) in assay [5]; 0.5 µg/mL (≈ 0.322 µM) in assay [6]; 0.06 µg/mL (≈ 0.0387 µM) in assay [9]; 1 µg/mL (≈ 0.645 µM) in assay [10]; above 32 µg/mL in assay [11]. For the same compound, the minimum inhibitory concentration (MIC) in assay [12] was 4 µg/mL (≈ 2.58 µM); in assay [13], 8 µg/mL (≈ 5.16 µM); in [14], at most 0.03 µg/mL; in assay [16], 8 µg/mL (≈ 5.16 µM). Also, the Ratio in [4] and in assay [15] was 16 throughout. Further, the Activity in assay [7] came to 32 µg/mL. For the same compound, the MBIC in assay [8] was determined as 32 µg/mL.
`CN[C@H](CC(C)C)C(=O)N[C@H]1C(=O)N[C@@H](CC(N)=O)C(=O)N[C@H]2C(=O)N[C@H]3C(=O)N[C@H](C(=O)N[C@H](C(=O)NCCCCCNC(=O)CCCCC4CCSS4)c4cc(O)cc(O)c4-c4cc3ccc4O)[C@H](O)c3ccc(c(Cl)c3)Oc3cc2cc(c3O[C@@H]2O[C@H](CO)[C@@H](O)[C@H](O)[C@H]2O[C@H]2C[C@](C)(N)[C@H](O)[C@H](C)O2)Oc2ccc(cc2Cl)[C@H]1O` (stereo partly drawn): the “inhibition (INH)” value in assay [1] and in assay [3] was 100% each time. For the same compound, the minimum inhibitory concentration (MIC) in assay [2] was 1 µg/mL (≈ 0.581 µM); in assay [5], above 32 µg/mL; in [6], 8 µg/mL (≈ 4.65 µM); in [9] it was 0.06 µg/mL (≈ 0.0348 µM); in [10] it was 4 µg/mL (≈ 2.32 µM); in [11] it was 32 µg/mL (≈ 18.6 µM). In addition, the minimal inhibitory concentration (MIC) in assay [12] stood at 4 µg/mL (≈ 2.32 µM); in assay [13], 2 µg/mL (≈ 1.16 µM); in assay [14], 0.06 µg/mL (≈ 0.0348 µM); in assay [16], 2 µg/mL (≈ 1.16 µM). The Ratio in [17], in assay [4], in assay [15] and in [18] was 4 each time. Further, in [7], the Activity was found to be 8 µg/mL. Also, the MBIC in [8] was determined as 8 µg/mL.
As for `CN[C@H](CC(C)C)C(=O)N[C@H]1C(=O)N[C@@H](CC(N)=O)C(=O)N[C@H]2C(=O)N[C@H]3C(=O)N[C@H](C(=O)N[C@H](C(=O)NCCSSCCNC(=O)CCSC(c4ccccc4)(c4ccccc4)c4ccccc4)c4cc(O)cc(O)c4-c4cc3ccc4O)[C@H](O)c3ccc(c(Cl)c3)Oc3cc2cc(c3O[C@@H]2O[C@H](CO)[C@@H](O)[C@H](O)[C@H]2O[C@H]2C[C@](C)(N)[C@H](O)[C@H](C)O2)Oc2ccc(cc2Cl)[C@H]1O`, the Ratio in [19] was found to be 8; in assay [17], 8; in assay [20], 8; in assay [21] it was 32; in assay [22] it was 8; in assay [18], 8. For the same compound, the entries for the “inhibition (INH)” value in assay [1] and in assay [3] were 97% and 100%, respectively. In addition, the minimum inhibitory concentration (MIC) in assay [6] amounted to 1 µg/mL (≈ 0.522 µM); in [10], 2 µg/mL (≈ 1.04 µM); in assay [13], 8 µg/mL (≈ 4.18 µM); in assay [16] it was 4 µg/mL (≈ 2.09 µM). Further, in assay [7], the Activity was determined as 2 µg/mL. Also, the MBIC in assay [8] came to 2 µg/mL.
